In this assay the test system is superior mesenteric artery (contracted by potassium chloride). Put plainly: Vessel Smooth Muscle Relaxation Action (V.R.). The conditions noted are these: Oryctolagus cuniculus; concentration relaxing KCl-contracted strain to 50%; cumulative administration; read-out: V.R. (ED50). The format is cell-based, rabbit. The text has this: The specimen was suspended by loading a strain in Krebs-Henseleit solution through which an oxygen gas containing 5% carbon dioxide was bubbled. The specimen was contracted by adding potassium chloride to maintain a predetermined strain. Thereafter, a test compound was cumulatively administrated.

Counter-ions that a name gives are not always drawn.

As for `CC(C=Cc1ccccn1)NCCNS(=O)(=O)c1cccc2cnccc12` (stereo not shown) [Example 162, N-{2-[1-Methyl-3-(2-Pyridyl)-2-Propenylamino]Ethyl}-5-Isoquinolinesulfonamide], the EC50 stood at 35 µM.

For the compound `CC(C=Cc1ccncc1)NCCNS(=O)(=O)c1cccc2cnccc12` (stereo not shown) [Example 163, N-{2-[1-Methyl-3-(4-Pyridyl)-2-Propenylamino]ethyl}-5-Isoquinolinesulfonylamide], the EC50 was found to be 31 µM. Next, `CC(C=Cc1cccs1)NCCNS(=O)(=O)c1cccc2cnccc12` (stereo not shown) [Example 164, N-{2-[1-Methyl-3-(2-Thienyl)-2-Procenylamino]ethyl}-5-Isoquinolinesulfonamide]: 4.1 µM; `CC(C=Cc1ccco1)NCCNS(=O)(=O)c1cccc2cnccc12` (stereo not shown) [Example 165, N-{2-[3-(2-Furyl)-1-Methyl-2-Propenylamino]Ethyl}-5-Isoquinolinesulfonamide]: 11 µM. The same measure for `COc1ccc(C=CC(C)NCCNS(=O)(=O)c2cccc3cnccc23)cc1` (stereo not drawn) [Example 169, N-2-(4-Methoxy-α-Methylcinnamylamino)ethyll-5-Isoquinolinesulfonamide]: 4.6 µM; for `CC(C=Cc1ccc(O)cc1)NCCNS(=O)(=O)c1cccc2cnccc12` (stereo not shown) [Example 170]: 5.2 µM.

Take `CC(C=Cc1ccccc1)NCCCNS(=O)(=O)c1cccc2cnccc12` (stereo not drawn) [Example 171, N-[3-(α-Methylcinnamylamino)Propyl]-5-Isoquinolinesulfonamide]: the EC50 worked out at 5.4 µM. Next, `CN(C)c1ccc(C=CCNCCNS(=O)(=O)c2cccc3cnccc23)cc1` [Example 174]: 11 µM.

In the case of `COCCOCOc1ccc(C=CCNCCNS(=O)(=O)c2cccc3cnccc23)cc1` [Example 182, N-{2-[4-(2-Methoxyethoxy)Methoxycinnamylamino]Ethyl}-5-Isoquinolinesulfonamide], the EC50 is 17 µM. Consider `O=S(=O)(NCCNCC=Cc1ccc(O)cc1)c1cccc2cnccc12` [Example 183, N-[2-(4-Hydroxycinnamylamino)ethyl]-5-Isoquinolinesulfonamide], for which the EC50 stood at 2.8 µM. Next, `COc1cc(C=CCNCCNS(=O)(=O)c2cccc3cnccc23)cc(OC)c1OC` [Example 185, N-[2-(3,4,5-Trimethoxycinnamylamino)ethyl]-5-Isoquinolinesulfonamide]: 0.21 µM.

As to `O=S(=O)(NCCCNCC=Cc1ccccc1)c1cccc2cnccc12` [Example 188, N-(3-Cinnamylaminopropyl)-5-Isoquinolinesulfonamide], the EC50 amounted to 4 µM. The same measure for `O=S(=O)(NCCN(CC#Cc1ccc(Cl)cc1)CC#Cc1ccc(Cl)cc1)c1cccc2cnccc12` [Example 189-II, N-{2-[Bis-(3-((4-Chlorophenyl))-2-Propynyl)Amino]Ethyl}-5-Isoquinolinesulfonamide]: 0.2 µM; for `CN(CC=Cc1ccc(Cl)cc1)CCNS(=O)(=O)c1cccc2cnccc12` [Example 190, N-[2-(4-Chloro-N-Methylcinnamylamino)ethyl]-5-Isoquinolinesulfonamide]: 0.19 µM. Next, `O=S(=O)(NCCNCC=Cc1ccccc1)c1cccc2cnccc12` [Example 201, N-(2-Cinnamylaminoethyl)-5-Isoquinolinesulfonamide.1/2 Fumarate]: 3.2 µM; `CC(C=Cc1ccccc1)NCCNS(=O)(=O)c1cccc2cnccc12` (stereo not drawn) [Example 202, N-[2-(α-Methylcinnamylamino)Ethyl]-5-Isoquinolinesulfonamide 1/2 Fumarate]: 1.3 µM.

The values above are taken from patent publication US5245034A, “Compound having vessel smooth muscle relaxation activity” (Hidaka; Kiroyoshi, priority 1988, dated 1993).
